Legend:
ragweed = assay: Test C postemergence; format: in vivo, Ambrosia elatior
Outline: (§1)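 Plants were kept under greenhouse conditions for 13–15 days following spray. Pre-emergent application went to soil (loam–sand), post-emergent to foliage at 1–4 leaves. Evaluation: visual, percent control against untreated checks.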

corn = assay: Test A postemergence; format: in vivo, Zea mays; conditions: Zea mays, post-emergence, 240 h, 0 to 100 scale where 0 is no effect and 100 is complete control
Outline: (§2)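 Compounds in non-phytotoxic solvent with surfactant applied as soil spray preemergence, or postemergence to plants 2-10 cm at one- to two-leaf stage, in loam/sand. After approximately 10 days in greenhouse, injury rated visually versus untreated controls, 0 (no effect) to 100 (complete control).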

morningglory = assay: Test C postemergence; format: in vivo, Ipomoea coccinea
Outline: as §1

pigweed [1] = assay: Test A postemergence; format: in vivo, Amaranthus retroflexus; conditions: Amaranthus retroflexus, post-emergence, 0 to 100 scale where 0 is no effect and 100 is complete control
Outline: as §2

giant foxtail [2] = assay: Test A postemergence; format: in vivo, Setaria faberii; conditions: Setaria faberi, post-emergence, 240 h, 0 to 100 scale where 0 is no effect and 100 is complete control
Outline: as §2

wheat = assay: Test A preemergence; format: in vivo, Triticum aestivum
Outline: as §2

giant foxtail [3] = assay: Test C postemergence; format: in vivo, Setaria faberii; conditions: Setaria faberi, post-emergence
Outline: as §1

soybean = assay: Test C postemergence; format: in vivo, Glycine max
Outline: as §1

pigweed [4] = assay: Test C postemergence; format: in vivo, Amaranthus retroflexus
Outline: as §1

waterhemp = assay: Test C postemergence; format: in vivo, Amaranthus rudis
Outline: as §1

large (Lg) crabgrass = assay: Test C postemergence; format: in vivo, Digitaria sanguinalis; conditions: Digitaria sanguinalis, post-emergence
Outline: as §1

lambsquarters = assay: Test C postemergence; format: in vivo, Chenopodium album
Outline: as §1

[5] = 31 g ai/ha, postemergence, visual rating, scale 0 to 100 (0 no effect, 100 complete control), 13 to 15 days

Fc1cccc(Oc2ncc(Cl)cn2)c1-n1cc(Br)cn1 [Compound 178, 2-[2-(4-bromo-1H-pyrazol-1-yl)-3-fluorophenoxy]-5-chloropyrimidine]
Ragweed plant response rating (ragweed; [5]): 55
pest or weed control at 16 g/ha (ragweed; Ambrosia artemisiifolia, post-emergence, 16 g ai/ha, postemergence, 0 is no effect, 100 is complete control, read-out: Plant response rating (0 to 100), Ragweed): 20%
pest or weed control at 125 g/ha (ragweed; Ambrosia artemisiifolia, post-emergence, 125 g ai/ha, postemergence, visual rating, scale 0 to 100 (0 no effect, 100 complete control), read-out: Plant response rating, Ragweed): 65%
pest or weed control at 62 g/ha (ragweed; Ambrosia artemisiifolia, post-emergence, Postemergence, 62 g ai/ha, scale 0 to 100 (0 no effect, 100 complete control), read-out: Plant response rating, Ragweed): 30%
plant injury at 125 g/ha (corn; 125 g ai/ha, read-out: Corn plant response rating): 30%
Corn plant response rating (crop injury, 0 = no effect, 100 = complete kill) at 500 g/ha (corn; 500 g ai/ha): 70%
Morningglory plant response rating (morningglory; [5]): 70
pest or weed control at 16 g/ha (morningglory; Ipomoea, post-emergence, 16 g ai/ha, postemergence, 0 is no effect, 100 is complete control, read-out: Plant response rating (0 to 100), Morningglory): 10%
pest or weed control at 125 g/ha (morningglory; Ipomoea, post-emergence, 125 g ai/ha, postemergence, visual rating, scale 0 to 100 (0 no effect, 100 complete control), read-out: Plant response rating, Morningglory): 65%
pest or weed control at 62 g/ha (morningglory; Ipomoea, post-emergence, Postemergence, 62 g ai/ha, scale 0 to 100 (0 no effect, 100 complete control), read-out: Plant response rating, Morningglory): 85%
pest or weed control at 500 g/ha (pigweed [1]; 500 g ai/ha, read-out: Plant response rating, Pigweed): 100%
pest or weed control at 125 g/ha (pigweed [1]; 240 h, 125 g ai/ha, read-out: Pigweed plant response rating): 100%
pest or weed control at 125 g/ha (giant foxtail [2]; 125 g ai/ha, read-out: Foxtail, Giant plant response rating): 90%
pest or weed control at 500 g/ha (giant foxtail [2]; 500 g ai/ha, read-out: Plant response rating, Foxtail, Giant): 100%
Wheat plant response rating (0 to 100 scale) (wheat; 125 g ai/ha): 0
plant injury at 500 g/ha (wheat; Triticum aestivum, pre-emergence, 240 h, 500 g ai/ha, 0 to 100 scale where 0 is no effect and 100 is complete control, read-out: Wheat plant response rating): 40%
pest or weed control at 16 g/ha (giant foxtail [3]; 16 g ai/ha, postemergence, 0 is no effect, 100 is complete control, read-out: Plant response rating (0 to 100), Foxtail, Giant): 5%
pest or weed control at 31 g/ha (giant foxtail [3]; 31 g ai/ha, postemergence, visual rating, scale 0 to 100 (0 no effect, 100 complete control), 13 to 15 days, read-out: Foxtail, Giant plant response rating): 5%
pest or weed control at 125 g/ha (giant foxtail [3]; 125 g ai/ha, postemergence, visual rating, scale 0 to 100 (0 no effect, 100 complete control), read-out: Plant response rating, Foxtail, Giant): 25%
pest or weed control at 62 g/ha (giant foxtail [3]; Postemergence, 62 g ai/ha, scale 0 to 100 (0 no effect, 100 complete control), read-out: Plant response rating, Foxtail, Giant): 5%
Soybean plant response rating (soybean; [5]): 70
Soybean plant response rating (crop injury, 0-100 scale) at 16 g/ha (soybean; Glycine max, post-emergence, 16 g ai/ha, postemergence, 0 is no effect, 100 is complete control): 50%
Soybean plant response rating (crop injury, 0-100 scale) at 125 g/ha (soybean; Glycine max, post-emergence, 125 g ai/ha, postemergence, visual rating, scale 0 to 100 (0 no effect, 100 complete control), read-out: Plant response rating, Soybean): 95%
Soybean plant response rating (crop injury, 0-100 scale) at 62 g/ha (soybean; Glycine max, post-emergence, Postemergence, 62 g ai/ha, scale 0 to 100 (0 no effect, 100 complete control)): 65%
Pigweed plant response rating (pigweed [4]; [5]): 85
pest or weed control at 16 g/ha (pigweed [4]; Amaranthus retroflexus, post-emergence, 16 g ai/ha, postemergence, 0 is no effect, 100 is complete control, read-out: Plant response rating (0 to 100), Pigweed): 80%
pest or weed control at 125 g/ha (pigweed [4]; Amaranthus retroflexus, post-emergence, 125 g ai/ha, postemergence, visual rating, scale 0 to 100 (0 no effect, 100 complete control), read-out: Plant response rating, Pigweed): 98%
pest or weed control at 62 g/ha (pigweed [4]; Amaranthus retroflexus, post-emergence, Postemergence, 62 g ai/ha, scale 0 to 100 (0 no effect, 100 complete control), read-out: Plant response rating, Pigweed): 95%
Waterhemp plant response rating (waterhemp; [5]): 90
pest or weed control at 16 g/ha (waterhemp; Amaranthus tuberculatus, post-emergence, 16 g ai/ha, postemergence, 0 is no effect, 100 is complete control, read-out: Plant response rating (0 to 100), Waterhemp): 80%
pest or weed control at 125 g/ha (waterhemp; Amaranthus tuberculatus, post-emergence, 125 g ai/ha, postemergence, visual rating, scale 0 to 100 (0 no effect, 100 complete control), read-out: Plant response rating, Waterhemp): 100%
pest or weed control at 62 g/ha (waterhemp; Amaranthus tuberculatus, post-emergence, Postemergence, 62 g ai/ha, scale 0 to 100 (0 no effect, 100 complete control), read-out: Plant response rating, Waterhemp): 90%
pest or weed control at 16 g/ha (large (Lg) crabgrass; 16 g ai/ha, postemergence, 0 is no effect, 100 is complete control, read-out: Plant response rating (0 to 100), Crabgrass, Large): 5%
pest or weed control at 31 g/ha (large (Lg) crabgrass; 31 g ai/ha, postemergence, visual rating, scale 0 to 100 (0 no effect, 100 complete control), 13 to 15 days, read-out: Crabgrass, Large plant response rating): 10%
pest or weed control at 125 g/ha (large (Lg) crabgrass; 125 g ai/ha, postemergence, visual rating, scale 0 to 100 (0 no effect, 100 complete control), read-out: Plant response rating, Crabgrass, Large): 10%
pest or weed control at 62 g/ha (large (Lg) crabgrass; Postemergence, 62 g ai/ha, scale 0 to 100 (0 no effect, 100 complete control), read-out: Plant response rating, Crabgrass, Large): 5%
Lambsquarters plant response rating (lambsquarters; [5]): 80
pest or weed control at 16 g/ha (lambsquarters; Chenopodium album, post-emergence, 16 g ai/ha, postemergence, 0 is no effect, 100 is complete control, read-out: Plant response rating (0 to 100), Lambsquarters): 70%
pest or weed control at 125 g/ha (lambsquarters; Chenopodium album, post-emergence, 125 g ai/ha, postemergence, visual rating, scale 0 to 100 (0 no effect, 100 complete control), read-out: Plant response rating, Lambsquarters): 98%
pest or weed control at 62 g/ha (lambsquarters; Chenopodium album, post-emergence, Postemergence, 62 g ai/ha, scale 0 to 100 (0 no effect, 100 complete control), read-out: Plant response rating, Lambsquarters): 85%

Source: patent US9695155B2, “Herbicidal substituted pyrimidinyloxy benzene compounds” (E. I. DU PONT DE NEMOURS AND COMPANY, priority 2013, dated 2017)
